Data published in patent publication US20260325605A1, “INHIBITORS” (Zealand Pharma A/S, priority 2022, published 2026).

Legend:
Kv1.2 = biological target: T1, Kv1.2 (Homo sapiens, UniProt P16389); experiment: Patch clamp assay (QPatch), Kv1.2; assay type: cell-based; settings: for IC50: QPatch, CHO cells stably expressing human Kv1.2, read-out: Potency IC50, Kv1.2; for Selectivity Kv1.2/Kv1.3: ratio of IC50 Kv1.2/Kv1.3
T1 construct: expressed in transfected cells
Description: (§1) Selectivity of Kv1.3 inhibitor peptides for Kv1.3 over other potassium ion channels (Kv1.1, Kv1.2 and Kv1.6) was determined using patch clamp assay.
(§2) Chinese Hamster Ovary (CHO) cell lines stably expressing exogenous human α-subunits of each potassium ion channel were grown and passaged under standard culture conditions.
(§3) The automated, chip-based planar patch clamp device QPatch® was used to quantitate the ionic currents. All recordings were made in the conventional whole-cell configuration after establishment of gigaohm seals. […] During experiments 0.1% (v/v) BSA was included as a vehicle in all external recording solutions. Currents were elicited from a holding potential of −80 mV using a voltage protocol, which shifted the voltage to 30 mV for 500 ms every 15 s.
(§4) Concentration-response relationships were established by cumulatively applying seven escalating concentrations of test sample to an individual cell with a recording period of 2 min per compound application.
(§5) The efficacy was determined as the mean charge for the last three sweeps at the end of each concentration application period from the cursor positions. The percent inhibition for each test dose application period was calculated as the reduction in mean cursor value (charge) relative to the cursor value measured at the end of the vehicle period and used to calculate the IC50 from the concentration response curve.

Kv1.3 = biological target: T2, Kv1.3 (Homo sapiens, UniProt P22001); experiment: Patch clamp assay (QPatch), Kv1.3; assay type: cell-based; settings: CHO cells stably expressing human Kv1.3, read-out: Potency IC50, Kv1.3
T2 construct: expressed in transfected cells

Kv1.1 = biological target: T3, Kv1.1 (Homo sapiens, UniProt Q09470); experiment: Patch clamp assay (QPatch), Kv1.1; assay type: cell-based; settings: for IC50: QPatch, CHO cells stably expressing human Kv1.1, read-out: Potency IC50, Kv1.1; for Selectivity Kv1.1/Kv1.3: ratio of IC50 Kv1.1/Kv1.3
T3 construct: expressed in transfected cells
Description: as §1, §2, §3, §4, §5

Kv1.6 = biological target: T4, Kv1.6 (Homo sapiens, UniProt P17658); experiment: Patch clamp assay (QPatch), Kv1.6; assay type: cell-based; settings: for IC50: QPatch, CHO cells stably expressing human Kv1.6, read-out: Potency IC50, Kv1.6; for Selectivity Kv1.6/Kv1.3: ratio of IC50 Kv1.6/Kv1.3
T4 construct: expressed in transfected cells
Description: as §1, §2, §3, §4, §5

[1] = Example 6: Pharmacokinetic characterisation after s.c. administration; assay type: in vivo, rat (Sprague Dawley or Wistar); settings: rat, 70 nmol/kg; for AUCINF / Cmax: plasma; for T1/2: plasma terminal elimination half-life
Description: Sprague Dawley or Wistar rats (males with a body weight of approximately 250-350 g) were given a single subcutaneous (s.c.) injection of each peptide to be tested.
Following s.c. administration of the selected peptides (dose 70 nmol/kg, dosing volume either 2 or 5 mL/kg), blood samples were drawn at 15 min, 30 min, 45 min, 60 min, 90 min, 2 h, 3 h, 4 h post-dose. At each sampling time point, samples from the rats were drawn by sublingual bleeding or by tail cut. After last sampling the rats were sacrificed by O2/CO2 anaesthesia. The dosing vehicle was 10 mM phosphate, 0.8% NaCl, 0.05% Polysorbate 20 (pH 6.0).
Plasma samples were analyzed after solid phase extraction (SPE) by liquid chromatography mass spectrometry (LC-MS/MS). Mean plasma concentrations were used for calculation of the pharmacokinetic parameters using the non-compartmental approach in Phoenix WinNonlin 6.4 or a later version. […]. AUCinf is the area under the plasma concentration−time curve extrapolated to infinity (AUCinf=AUClast+Clast/λz, where Clast is the last observed plasma concentration). Cmax is the maximum observed concentration, occurring at Tmax.

[2] = test system: T-cell activation in rat whole blood; experiment: Example 4: IL-17A release in thapsigargin stimulated rat whole blood; assay type: cell-based, rat (Lewis or Sprague-Dawley); settings: 24 Hr, at least 2 replicates, unit inferred, read-out: IC50 (inhibition of IL-17A release)
Source text: Rat whole blood was used to assess the potency of Kv1.3 inhibitor peptides on T-cell activation as determined by IL-17A release after stimulation with thapsigargin. Addition of thapsigargin results in activation of a signalling cascade ending up in activation of T cell proliferation and cytokine production where the Kv1.3 ion channel plays a key role, so activity of Kv1.3 inhibitors in primary cells can be measured in this experimental system.
Rat whole blood was obtained from healthy, naïve Lewis or Sprague-Dawley rats that were terminally bleed from the heart using Sodium Heparin blood sampling tubes for collection. Peptides were diluted to 4× final testing concentrations in assay buffer (DMEM+GlutaMAX), GlutaMAX is a medium comprising 3.97 mM L-alanine-L-glutamine (Gibco Cat #61965026) supplemented with 25 mM HEPES buffer, 1 mM Sodium Pyruvate, 100 units/ml Penicillin, 100 μg/ml Streptomycin and 0.05% Casein from bovine milk (Sigma-Aldrich)) and 25 μl was added to wells of a 96 well plate. Then 50 μl whole rat blood was added and incubated for minimum 5 minutes at room temperature to allow compound binding. Then 25 μl 40 μM thapsigargin diluted in assay buffer was added to all wells of the assay plates to activate the cells, followed by incubation for 24 Hr at 37° C./5% CO2 in a humidified box. The assay plates were centrifuged for 10 min at 300 g at 4° C. and the supernatants were transferred to new plates. The concentrations of IL-17A released to the supernatants were measured using a Rat IL-17A ELISA Kit (Abcam Cat #ab214028) as recommended by the manufacturer. Samples were diluted 2.5-fold by transferring 20 μl of the supernatants to wells on ELISA plates containing 30 μl buffer 75BS from the detection kit.
Data from peptides eliciting an inhibition of IL-17A were normalised relative to full thapsigargin activation (no inhibitor added) and no activation controls (addition of assay buffer instead of thapsigargin) to calculate the IC50 from the concentration response curve.
Results are shown in Table 5, expressed as IC50, with standard deviation (IC50_SD). All values are derived from at least 2 replicates. The biological effects ex vivo show a correlation with the potency of the peptides.

T1 sequence (P16389 whole entry): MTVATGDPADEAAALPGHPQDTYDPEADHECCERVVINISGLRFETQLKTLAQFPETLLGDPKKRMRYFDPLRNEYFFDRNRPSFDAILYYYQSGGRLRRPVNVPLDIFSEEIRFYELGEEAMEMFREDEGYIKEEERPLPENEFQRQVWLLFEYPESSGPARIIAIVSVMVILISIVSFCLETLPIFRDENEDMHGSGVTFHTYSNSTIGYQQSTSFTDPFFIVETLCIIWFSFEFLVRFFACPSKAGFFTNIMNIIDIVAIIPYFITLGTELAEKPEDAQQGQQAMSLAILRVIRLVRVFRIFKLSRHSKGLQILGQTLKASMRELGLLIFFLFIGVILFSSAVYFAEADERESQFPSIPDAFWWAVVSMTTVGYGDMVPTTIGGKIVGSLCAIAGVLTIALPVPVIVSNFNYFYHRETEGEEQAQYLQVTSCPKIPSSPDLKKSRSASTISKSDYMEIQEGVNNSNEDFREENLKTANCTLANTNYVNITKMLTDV
T4 sequence (P17658 whole entry): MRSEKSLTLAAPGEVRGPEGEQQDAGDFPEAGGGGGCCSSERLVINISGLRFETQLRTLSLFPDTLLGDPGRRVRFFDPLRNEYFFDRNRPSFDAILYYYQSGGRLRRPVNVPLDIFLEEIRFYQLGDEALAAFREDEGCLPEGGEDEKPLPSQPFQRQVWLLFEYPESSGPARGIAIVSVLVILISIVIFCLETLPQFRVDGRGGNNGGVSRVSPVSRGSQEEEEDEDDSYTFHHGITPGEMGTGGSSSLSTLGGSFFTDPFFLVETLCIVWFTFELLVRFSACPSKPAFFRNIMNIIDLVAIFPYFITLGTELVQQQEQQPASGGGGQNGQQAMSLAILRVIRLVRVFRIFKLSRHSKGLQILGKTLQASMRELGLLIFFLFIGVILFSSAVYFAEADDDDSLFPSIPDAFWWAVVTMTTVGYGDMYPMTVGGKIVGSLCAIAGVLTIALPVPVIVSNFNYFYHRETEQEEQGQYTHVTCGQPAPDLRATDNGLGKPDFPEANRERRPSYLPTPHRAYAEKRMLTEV
T3 sequence (Q09470 whole entry): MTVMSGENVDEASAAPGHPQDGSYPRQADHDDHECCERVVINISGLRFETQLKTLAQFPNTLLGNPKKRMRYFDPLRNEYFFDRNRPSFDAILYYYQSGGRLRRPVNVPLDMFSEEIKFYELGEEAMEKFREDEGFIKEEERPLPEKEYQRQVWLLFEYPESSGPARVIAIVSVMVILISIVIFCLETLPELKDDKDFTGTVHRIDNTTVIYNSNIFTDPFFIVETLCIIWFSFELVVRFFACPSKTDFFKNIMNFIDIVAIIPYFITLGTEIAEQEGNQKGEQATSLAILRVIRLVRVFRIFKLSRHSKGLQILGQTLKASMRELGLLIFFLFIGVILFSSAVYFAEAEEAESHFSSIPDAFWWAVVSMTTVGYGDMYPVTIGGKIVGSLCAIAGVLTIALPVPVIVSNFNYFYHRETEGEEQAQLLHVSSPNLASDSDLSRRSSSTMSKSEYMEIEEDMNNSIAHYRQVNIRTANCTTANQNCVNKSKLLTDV
T2 sequence (P22001 whole entry): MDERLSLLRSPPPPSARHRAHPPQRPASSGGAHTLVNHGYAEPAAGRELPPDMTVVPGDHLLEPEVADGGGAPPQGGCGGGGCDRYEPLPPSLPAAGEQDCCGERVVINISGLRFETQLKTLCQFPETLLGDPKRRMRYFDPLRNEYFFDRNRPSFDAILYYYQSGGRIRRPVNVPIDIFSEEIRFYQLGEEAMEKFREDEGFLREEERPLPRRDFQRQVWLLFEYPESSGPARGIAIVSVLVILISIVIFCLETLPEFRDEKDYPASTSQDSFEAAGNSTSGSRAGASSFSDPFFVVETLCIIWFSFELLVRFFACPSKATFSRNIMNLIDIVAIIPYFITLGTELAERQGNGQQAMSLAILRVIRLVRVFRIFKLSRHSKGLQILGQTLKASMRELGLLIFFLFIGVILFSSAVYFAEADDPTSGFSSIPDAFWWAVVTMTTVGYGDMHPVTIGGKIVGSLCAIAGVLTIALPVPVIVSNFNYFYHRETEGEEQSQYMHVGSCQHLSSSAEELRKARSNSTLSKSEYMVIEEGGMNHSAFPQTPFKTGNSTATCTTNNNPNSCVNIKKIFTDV

| Substance | IC50 (Kv1.2) [nM] | Selectivity Kv1.2/Kv1.3 (Kv1.2) | IC50 (Kv1.3) [nM] | IC50 (Kv1.1) [nM] | Selectivity Kv1.1/Kv1.3 (Kv1.1) | IC50 (Kv1.6) [nM] | Selectivity Kv1.6/Kv1.3 (Kv1.6) | AUCINF [1] [µM·h] | Cmax [1] [nM] | T1/2 [1] [min] | IC50 [2] [nM] |
| --- | --- | --- | --- | --- | --- | --- | --- | --- | --- | --- | --- |
| H-PIE[Nle]RC(1)SASVEC(2)KQKC(3)LAAIGSIFGKC(1)[Nle]NKKC(2)KC(3)YPR-OH [Peptide 105] | 1970 | 5630 | 0.35 | > 3000 | >8600 | > 3000 | >8600 | 0.1318 | 58.6 | 54.6 | 0.61 |
| H-NID[Nle]RC(1)SASVEC(2)KQKC(3)LKAIGSIFGKC(1)[Nle]NKKC(2)KC(3)YPR-OH [Peptide 98] | 2060 | 7756 | 0.27 | > 3000 | >11300 | > 3000 | >11300 | 0.085 | 46.5 | 65.4 | 1.2 |
| H-MDMRC(1)SASVEC(2)KQKC(3)LKAIGSIFGKC(1)MNKKC(2)KC(3)YPR-OH [Peptide 6] | 285 | 747 | 0.38 | > 3000 | >7900 | > 3000 | >7900 | 0.0724 | 48.4 | 55.8 | – |
| H-P[Nle]E[Nle]RC(1)SASVEC(2)AQKC(3)LAAIGSIFGKC(1)[Nle]NKKC(2)KC(3)YPR-OH [Peptide 107] | > 3000 | 5500 | 0.55 | > 3000 | >5500 | > 3000 | >5500 | 0.1766 | 68.4 | 81.6 | 1.2 |
| H-NMDMRC(1)SASVEC(2)KQKC(3)LYAIGSIFGKC(1)MNKKC(2)KC(3)YPR-NH2 [Peptide 54] | 149 | 514 | 0.29 | > 3000 | >10300 | > 3000 | >10300 | 0.0311 | 50 | 52.2 | – |
| H-NMDMRC(1)SASVEC(2)KQKC(3)LKAIGSIFGKC(1)MNGKC(2)KC(3)YPR-NH2 [Peptide 37] | 439 | 1422 | 0.31 | > 3000 | >9700 | > 3000 | >9700 | – | – | – | 1.2 |
| H-NIDMRC(1)SASVEC(2)KQKC(3)LKAIGSIFGKC(1)MNKKC(2)KC(3)YPR-OH [Peptide 9] | 376 | 857 | 0.44 | > 3000 | >6800 | > 3000 | >6800 | 0.0983 | 76.9 | 37.2 | – |
| H-NMDMRC(1)SASVEC(2)KQKC(3)LKAIGSKFGKC(1)MNKKC(2)KC(3)YPR-NH2 [Peptide 35] | 100 | 237 | 0.42 | > 3000 | >7100 | 207 | 490 | – | – | – | 2.1 |
| H-PIE[Nle]RC(1)SASVEC(2)KQKC(3)LKAIGSIFGKC(1)[Nle]NKKC(2)KC(3)YPR-OH [Peptide 99] | 1760 | 4561 | 0.39 | > 3000 | >7800 | > 3000 | >7800 | – | – | – | 1.8 |
